Data set [1] deals with HPV- (SCC19, SCC29) and HPV+ (SCC47, SCC104, SCC152) HNSCC cell lines. As to the kind of experiment: Sensitization of HNSCC cell lines to photon radiation. Type of data set: cell-based. As to conditions: radiation 0-4Gy followed by inhibitor; DER10.
Protocol: The dose enhancement ratio for 10% survival (DER10) was calculated as follows: DER10=(Dose correlated with 10% survival fraction in radiation-treated cells)/(Dose correlated with 10% survival fraction in radiation and inhibitor treated cells).
CCDP, Cetuximab, and GA-OH were evaluated for their ability to sensitize HNSCC cell lines to photon radiation.
Colonies were counted after 14-21 days and normalized to vehicle control and survival analysis was performed.
Sensitization of an additional HPV^+ cell line to radiation by CDDP, Cetuximab and GA-OH was evaluated.
For data set [2], the target named is T1, full-length HPV E6 binding to human Caspase 8 (Human papillomavirus type 16, UniProt P03126).
T1 construct: made in house; host or cells: E. coli
As to conditions: for inhibition of E6-caspase 8 binding relative to GA: SAR analogs. On the procedure:
Three structurally diverse libraries (Prestwick library, Microsource Spectrum library and an in-house collection at Kansas University; see Table 1) were screened for the ability of compounds to inhibit the binding of full-length HPV E6 to human Caspase 8 using a previously optimized AlphaScreen™ protocol.
The compounds were diluted to a working concentration in DMSO and screened at a single-point final concentration of 10 μM with no replicates. Briefly, 75 nL of each compound was transferred and added to wells of the destination 384-well plate using the Echo dispenser to 4 μL of blocking solution. 4 μL of 800 nM GST-E6 and 4 μL of His6-Caspase 8 were added and pre-incubated at room temperature for 60 minutes. 8 μL of the donor and acceptor bead mixture (final concentration of 20 μg/ml) was then added. The plates were sealed and incubated for 4 hours at room temperature before the plates were read using the Envision™ Multi-Label plate reader (Perkin Elmer Inc.). […] A 10-point serial dilution of these compounds was done for dose-dependency reconfirmation. Dose response inhibition curves were constructed and IC50 calculated using GraphPad Prism using four parameter non-linear regression analysis.
The first counter-screen assay was based using the GST-His6 fusion peptide as the E6-binding partner instead of GST-E6-His6-Caspase 8. Hit candidate compounds from the primary screen were prepared using a 6-point serial dilution. Using an Echo dispenser, compounds were transferred to plates containing 4 μL of blocking buffer. 8 μL of 5 nM GST-His6 peptide substrate was then added. The mixture was pre-incubated at room temperature for 60 minutes. Glutathione donor and nickel chelate acceptor beads (final concentration 20 μg/mL) were added and incubated for another 60 minutes at room temperature. Dose-dependency of the compounds using GST-E6-His6-Caspase 8 was performed in parallel using the same protocol as in the primary screen. The signals were then read using the Envision™ plate reader.
(§1) Using the SciFinder and Zinc15 databases, several gambogic acid structural analogs were identified and selected. The 8 analogs were obtained as follow: gambogenic amide (Enzo Life Sciences), gambogenic acid (Selleckchem), morellic acid (Aobious), 30-hydroxy gambogic acid (Quality Phytochemicals, LLC), acetyl gambogic acid (Microsource), and gambogin, neogambogic acid and isomorellinol (MolPort Natural Products). Additional gambogic acid was purchased from Tocris. The interactions of the analogues with E6-caspase 8 was tested using AlphaScreen™ technology using the same protocol as with the primary screen, and were compared to the parent compound. The effect on cell viability was also similarly done in HPV^+ and HPV^− cell lines via the MTT assay (see below) and potency was determined using GraphPad IC50 curve fitting.

Data set [3] has as its system SCC104 (HPV+ HNSCC cell line). As to the kind of experiment: MTT cell viability of gambogic acid analogs. Type of data set: cell-based. As to conditions: for rank among highest IC50s relative to the parent compound: SCC104, MTT. As to the method: Next, the analogs were evaluated for functional activity using the HPV^+ HNSCC cell line, SCC104, in the MTT assay as described previously to determine whether similar findings would be observed as in the in vitro AlphaScreen™ analysis. With one exception, the patterns were similar to the AlphaScreen™ data, but the differences were relatively more pronounced in the cell-based screen (FIG. 6B). […] Based on these findings, 30-hydroxygambogic acid (GA-OH) was selected as a candidate for more extensive functional studies.
as §1
All working concentrations were diluted in PBS to the desired concentration before use. To test the effect of gambogic acid and/or its derivatives on cell viability, all cell lines were seeded at 2×10^4 per well in 96-well plates and allowed to adhere overnight. Various concentrations of the analogues were added and the cells incubated at 37° C. for 24 hr. Viability was then measured using the MTT assay, performed as described previously. All experiments were repeated at least three times (three biological replicates, carried out on different days). Data presented are from a representative experiment. Cell viability and potency were assessed from % inhibition relative to the vehicle control, and IC50 dose curves were generated using GraphPad Prism.

The target in data set [4] is T2, E6 binding to E6AP (GST-E6 and His6-E6AP) (Human papillomavirus type 16, UniProt P03126).
T2 construct: made in house; host or cells: E. coli (stated for GST-E6 only)
As to the kind of experiment: AlphaScreen E6-E6AP binding (cross-validation). As to conditions: head to head comparison gambogic acid vs myricetin; read-out: IC50 against E6-E6AP.
Protocol: Its activity was then cross-validated by performing additional AlphaScreening™ tests using GST-E6 and His6-E6AP as substrates. […] The activity of these two inhibitors against E6-Caspase 8 binding were evaluated in parallel for a head to head comparison.
The selected compound(s) were then cross-validated with a related but different primary screen assay. Specifically, the caspase 8 used in the primary screen was replaced with E6AP and the inhibitory activity was evaluated against E6 binding to E6AP (E6-E6AP) using the same steps as in the AlphaScreen™ protocol described above.

Data set [5] relates to HPV+ (SCC47, SCC090, SCC104, SCC152) and HPV- (SCC19, SCC29, SCC49, SCC84) HNSCC cell lines. As to the kind of experiment: MTT cell viability, HNSCC panel. Type of data set: cell-based. On the procedure: While SAR studies using the SCC104 cell line provided evidence of the activity of the analogs, further studies were conducted to assess not just the potency, but also the selectivity. As a step towards that goal, the efficacy of GA-OH was evaluated in a panel containing both HPV^+ and HPV^− HNSCC cell lines using MTT cell viability assays. Four HPV^+ cell lines (SCC47, SCC090, SCC104, SCC152) and four HPV^− cell lines (SCC19, SCC29, SCC49, SCC84) were utilized. GA-OH behaved dose dependently in cell lines both with or without HPV. […] FIGS. 7A-7C are graphical representations of the sensitivity of HPV^+ cell lines and HPV^− cell lines to GA-OH-mediated growth inhibition. FIG. 7A is a graphical representation of the cell growth inhibition of HNSCC HPV^+ and HPV^− cell lines by GA-OH (+ and closed shapes represent HPV^+ cell lines and − and open shapes the HPV^− cell lines). […] These cells were good controls, as HPV is an established causative agent in CC carcinogenesis. Two HPV^+ cell lines, SiHa and CaSki were selected as the positive controls and the Saos-2 cell line was used as an HPV-negative control. […] FIG. 7B is a graphical representation of the cell growth inhibition of cervical cancer HPV^+ and HPV^− cell lines by GA-OH. HPV^+ cell lines display higher sensitivity than do HPV^− cell lines as shown by the leftwards shift of the HPV^+ curves (SCC47, 90, 104, 152 in FIG. 7A and SiHa and CaSki in FIG. 7B).
All working concentrations were diluted in PBS to the desired concentration before use. To test the effect of gambogic acid and/or its derivatives on cell viability, all cell lines were seeded at 2×10^4 per well in 96-well plates and allowed to adhere overnight. Various concentrations of the analogues were added and the cells incubated at 37° C. for 24 hr. Viability was then measured using the MTT assay, performed as described previously. […] Cell viability and potency were assessed from % inhibition relative to the vehicle control, and IC50 dose curves were generated using GraphPad Prism.

The conditions of data set [6]: toxicities to organs only at high concentrations; cited from earlier work.

SMILES strings stand for the structures. Where two headings read alike, the source gives them in different places.

T1 sequence (P03126 whole entry): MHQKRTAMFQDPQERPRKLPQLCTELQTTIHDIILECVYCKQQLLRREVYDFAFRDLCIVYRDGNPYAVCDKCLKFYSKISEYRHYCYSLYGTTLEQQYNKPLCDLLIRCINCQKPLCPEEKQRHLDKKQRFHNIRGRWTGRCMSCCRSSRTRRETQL
T2 sequence (P03126 whole entry): as above

Take `[NH2][Pt]([NH2])([Cl])[Cl]` [CDDP, cisplatin, reference compound]: the “sensitization to photon radiation” value in data set [1] was “greatest sensitization”.

In the case of `CC(C)=CCc1c2c(c(O)c3c1O[C@]14C(=C[C@@H]5C[C@H]1C(C)(C)O[C@@]4(C/C=C(/C)C(=O)O)C5=O)C3=O)C=CC(C)(C)O2` [analog #2, morellic acid], the “inhibition of E6-caspase 8 binding relative to GA” value in data set [2] is “did not significantly affect the activity”.

Turning to `CC(C)=CCC/C(C)=C/Cc1c(O)c(CC=C(C)C)c2c(c1O)C(=O)C1=C[C@@H]3C[C@H]4C(C)(C)O[C@@](C/C=C(/C)C(=O)O)(C3=O)[C@@]14O2` [analog #3, gambogenic acid], the “rank among highest IC50s relative to the parent compound” value in data set [3] is on record as “third”.

As for `CC(C)=CCC[C@]1(C)C=Cc2c(O)c3c(c(CC=C(C)C)c2O1)O[C@]12C(=C[C@@H]4CC1C(C)(C)O[C@@]2(C/C=C(/C)C(N)=O)C4=O)C3=O` [analog #4, gambogic amide], the “inhibition of E6-caspase 8 binding relative to GA” value in data set [2] was “did not significantly affect the activity”.

Turning to `CC(C)=CCCC1(C)CC(O)c2c(O)c3c(c(CC=C(C)C)c2O1)OC12C(=CC4CC1C(C)(C)OC2(C/C=C(\C)C(=O)O)C4=O)C3=O` (stereo not shown) [analog #5, neo-gambogic acid], in data set [3], the “rank among highest IC50s relative to the parent compound” value was “fourth”.

On to `CC(C)=CCCC1(C)C=Cc2c(O)c3c(c(CC=C(C)C)c2O1)O[C@]12C(=CC4C[C@H]1C(C)(C)OC2(CC=C(C)C)C4=O)C3=O` (stereo partly shown) [analog #6, gambogin], for which the “rank among highest IC50s relative to the parent compound” value in data set [3] was “first”.

`CC(C)=CCc1c2c(c(O)c3c1OC14C(=CC5CC1C(C)(C)OC4(C/C=C(\C)CO)C5=O)C3=O)C=CC(C)(C)O2` (stereo not shown) [analog #7, iso morellinol]: the “inhibition of E6-caspase 8 binding relative to GA” value in data set [2] is “did not significantly affect the activity”.

Turning to `CC(=O)Oc1c2c(c(CC=C(C)C)c3c1C(=O)C1=C[C@@H]4CC5C(C)(C)OC(C/C=C(\C)C(=O)O)(C4=O)[C@@]15O3)OC(C)(CCC=C(C)C)C=C2` (stereo partly shown) [analog #8, acetyl iso-gambogic acid], in data set [2], the “inhibition of E6-caspase 8 binding relative to GA” value is “did not significantly affect the activity”. For the same molecule, the “potency in MTT assay” value in data set [3] (SCC104, 24 hr) is listed as “diminished activity”.

Take `CC(C)=CCC[C@]1(C)C=Cc2c(O)c3c(c(CC=C(C)C)c2O1)O[C@]12C(=C[C@@H]4C[C@H]1C(C)(C)O[C@@]2(C/C=C(/C)C(=O)O)C4=O)C3=O` [gambogic acid]: the half-maximal inhibitory concentration (IC50) came out at 2 µM in data set [2] (11 compounds that passed counter-screening, read-out: IC50 (μM) against E6-Caspase 8 binding); 1.9 µM in data set [2] (head to head comparison gambogic acid vs myricetin, read-out: IC50 against E6-Caspase 8); 1700 nM in data set [4]. For the same molecule, the “potency and selectivity for HPV+ versus HPV- cells” value in data set [5] is given as “significantly more sensitive”. The “tolerability in animal studies” value in data set [6] is given as “relatively tolerable”.

Turning to `O=c1c(O)c(-c2cc(O)c(O)c(O)c2)oc2cc(O)cc(O)c12` [myricetin, reference compound], the IC50 amounted to 4.6 µM in data set [2] (read-out: IC50 against E6-Caspase 8) and 5600 nM in data set [4].
